Type in all cases: cell-based, human
The subject of assay [1] is HeLa cells. Nature of the assay: Annexin V-FITC/PI staining apoptosis assay (FACS). The settings on record: 72 h. As to the method: (§1) Given BAG3’s well-documented anti-apoptotic role, annexin V-FITC/PI staining was performed to evaluate the effects of compound 10 on cell apoptosis. […] Specifically, at 50 µM, 81.0 ± 3.89% of the cells were apoptotic (p < 0.001 vs. Ctrl); at 30 µM, 70.5 ± 4.56% were apoptotic (p < 0.01 vs. Ctrl); and at 20 µM, 51.5 ± 2.23% were apoptotic (p < 0.05 vs. Ctrl) (Figure 3A,B).
Apoptosis of the cells was assessed using the Annexin V-FITC/PI reagents. Hela cells (20 × 10^3) were seeded into 24-well plates and incubated for 72 h with compound 10. After treatment, the collected cells were resuspended in a 100 μL assay buffer, then 5 μL Annexin V-FITC and 1 μL PI reagents were added following an incubation for 20 min at RT according to the manufacturer’s protocol (Dead Cell Apoptosis Kits with Annexin V for Flow Cytometry, Thermo Fisher Scientific). The cells were analyzed with a Becton Dickinson FACScan flow cytometer using the Cell Quest software, version 4 (Franklin Lakes, NJ, USA). See Supplementary Materials for the data plots (Figure S54).

The test system of assay [2] is HeLa cells. The experiment in a line: Cell cycle and hypodiploid nuclei analysis by PI staining flow cytometry. To be noted: 72 h, all tested concentrations (50, 30, 20 µM). The protocol: as §1
Hypodiploid nuclei were analyzed using PI staining by flow cytometry. HeLa cells (1 × 10^5 cells/well) were grown in 12-well plates and allowed to adhere for 24 h. Subsequently, the medium was replaced with fresh medium, and the cells were treated for 72 h with compound 10 at concentrations of 20, 30, and 50 µM, 0.1% (v/v) DMSO (negative control), and 10% (v/v) DMSO (positive control). Following treatment, the culture medium was replaced, and the cells were washed twice with PBS. The cells were then suspended in […] of a solution containing 50 mg/L PI, 0.1% (w/v) sodium citrate, and 0.1% Triton X-100. […] After incubation at 4 °C for 30 min in the dark, cell nuclei were analyzed using a Becton Dickinson FACS flow cytometer (Franklin Lakes, NJ, USA) with the Cell Quest program, and the DNA content of the nuclei was recorded. Cellular debris was excluded from the analysis by increasing the forward scatter threshold, and the percentages of cells in the hypodiploid region (sub-G0/G1), G1, S, and G2 regions were calculated. […]

Assay [3] has as its system caspase 3. The experiment in a line: Caspase 3 determination by flow cytometry. The settings on record: HeLa cells, 72 h, 50, 30 and 20 µM, vs control. As to the method: (§2) Furthermore, we investigated the expressions of caspases, key mediators of programmed cell death, in HeLa cells treated with compound 10 at the same concentrations used in the previous assays. […] To further confirm the pro-apoptotic mechanism induced by compound 10, Western blotting was performed to measure the expression and cleavage of caspase 3 [38, 39].
(§3) HeLa cells were seeded into 6-well plates (2.5 × 10^5 cells/well) and allowed to adhere for 24 h. The cells were then treated for 72 h with compound 10 at concentrations of 20, 30, and 50 µM, as well as with 0.1% DMSO negative (control), to assess caspase 3 and caspase 9 levels. After treatment, cells were collected, washed with PBS, and incubated at 4 °C first with a fixing buffer (containing 1% formaldehyde and 1% FBS in PBS) for 20 min, followed by permeabilization with fix perm solution (fixing buffer containing 0.1% Triton X-100) for 30 min. Next, the cells were incubated with anti-caspase 3 (1:500; SC-7272, Santa Cruz, CA, USA) and anti-caspase 9 (1:50; BS-0049R, Bioss Antibodies, Woburn, MA, USA) antibodies for 30 min at 4 °C. […] Cell fluorescence was then evaluated using a fluorescence-activated cell sorter (FACSscan, Becton Dickinson, Milan, Italy) and analyzed with Cell Quest software (4.0, Becton Dickinson, North Ryde, Australia). […]

Assay [4] relates to caspase 9. The experiment in a line: Caspase 9 determination by flow cytometry. The settings on record: HeLa cells, 72 h, 50, 30 and 20 µM, vs control. The protocol: as §2, §3
On the technique in general: A flow cytometer gives signals particle by particle.

Structures are written as SMILES.

Turning to `CC(C)Nc1c(-c2ccccc2Br)nc2ccc(Cl)cn12` [Compound 10, 2-(2-bromophenyl)-6-chloro-N-isopropylimidazo[1,2-a]pyridin-3-amine], the apoptotic cells is listed as 51.5 ± 2.23% in assay [1] (20 µM), 70.5 ± 4.56% in assay [1] (30 µM) and 81.0 ± 3.89% in assay [1] (50 µM). The cell cycle arrest entry in assay [2] is “consistent and significant cell cycle arrest”. Besides, the hypodiploid nuclei result in assay [2] is “increase in hypodiploid nuclei”. Besides, in assay [3], the “activation of caspase 3” value was “pronounced, dose-dependent activation”. The “activation of caspase 9” value in assay [4] is “pronounced, dose-dependent activation”.

The values are drawn from publication PMC11547576, “Identification of a New Promising BAG3 Modulator Featuring the Imidazopyridine Scaffold” (Molecules, 2024).
